Measured values reported in PMC10239758 (European journal of medicinal chemistry, 2023).
In brackets after ≈: the same amount, converted by molar mass. Where two headings read alike, the source gives them in different places.

What was measured:
Mtb strain H37Rv = experiment: Microplate Alamar Blue assay; type: cell-based, Mycobacterium tuberculosis; conditions: MABA, average of three measurements
[1] = Human liver microsomal stability; conditions: human liver microsomes; for Remaining (NCF = 60 min): without the NADPH cofactor
Vero cells = experiment: Cytotoxicity against Vero cells; type: cell-based, African green monkey; conditions: Chlorocebus sabaeus, read-out: Vero cells IC50, Vero cells
[2] = system: clinically isolated strains of MDR/XDR-TB; experiment: microbe, parasite or virus in culture; type: cell-based, Mycobacterium tuberculosis
Mtb V4207 = experiment: microbe, parasite or virus in culture; type: cell-based; conditions: Mycobacterium tuberculosis, V4207, read-out: Mtb MIC V4207/ DS

Row | Structure (SMILES) | MIC (Mtb strain H37Rv) [µg/mL] | Remaining (NCF = 60 min) [1] | also measured
1 | CC(C)c1ccc(-c2cccc(CN3CC[Si](C)(C)CC3)n2)cc1 [Compound 13, 1-((6-(4-Isopropylphenyl)pyridin-2-yl)methyl)-4,4-dimethyl-1,4-azasilinane] | 4 to 8 |  | 
2 | CC(C)c1ccc(-c2cc(CN3CC[Si](C)(C)CC3)ccn2)cc1 [Compound 17, 1-((2-(4-Isopropylphenyl)pyridin-4-yl)methyl)-4,4-dimethyl-1,4-azasilinane] | 4 to 8 |  | 
3 | CC(C)c1ccc(-c2cc(CN3CC[Si](C)(C)CC3)ncn2)cc1 [Compound 27, 4-((4,4-Dimethyl-1,4-azasilinan-1-yl)methyl)-6-(4-isopropylphenyl)pyrimidine] | 4 to 8 |  | 
4 | CC(C)c1ccc(-c2ccnc(CN3CCC4(CCCC4)CC3)c2)cc1 [Compound 37, 8-((4-(4-Isopropylphenyl)pyridin-2-yl)methyl)-8-azaspiro[4.5]decane] |  | stable | 
5 | c1ccc(-c2ccc(-c3ccnc(CN4CCC5(CCCC5)CC4)c3)cc2)cc1 [Compound 62, 8-((4-([1,1'-Biphenyl]-4-yl)pyridin-2-yl)methyl)-8-azaspiro[4.5]decane] |  | stable | IC50 (Vero cells): ≥ 16 µg/mL; MIC [2]: 0.0039 to 0.0625 µg/mL; MIC ([2]; Mycobacterium tuberculosis): 0.004 to 0.063 µg/mL (≈ 0.0105 to 0.165 µM); MIC (Mtb V4207): 0.0039 µg/mL (≈ 0.0102 µM)
6 | c1cc(-c2ccc(-c3ccoc3)cc2)cc(CN2CCC3(CCCC3)CC2)n1 [Compound 68, 8-((4-(4-(Furan-3-yl)phenyl)pyridin-2-yl)methyl)-8-azaspiro[4.5]decane] |  | stable | 
7 | O=C(O)Cc1ccccc1Nc1c(Cl)cccc1Cl [Diclofenac, reference compound] |  | stable | Remaining (T = 60 min) ([1]; with NADPH, after 60 min): 0.4%
8 | C[C@]12CC[C@H]3[C@@H](CCC4=CC(=O)CC[C@@]43C)[C@@H]1CC[C@@H]2O [Testosterone, reference compound] |  | stable | 
